Laboratory results from patent publication US20060069132A1, “Azolecarboxamide herbicides” (priority 2004, published 2006).

Tests used:
large crabgrass = experiment: Test C pre-/postemergence herbicide test; format: in vivo, Digitaria sanguinalis; conditions: for Crabgrass, Large plant response rating: 500 g ai/ha
How it was run: (§1)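 Emerged plants at the 1- to 4-leaf stage (2–18 cm), or freshly planted seeds, received test chemicals in a non-phytotoxic solvent mixture with surfactant. Response was visually scored against controls after 12 to 14 days in the greenhouse, on a 0 (no effect) to 100 (complete control) scale.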

ducksalad = experiment: Test C flooded paddy test; format: in vivo, Heteranthera limosa; conditions: for Plant response rating, Ducksalad: 500 g ai/ha, visual rating after 12 to 14 days
barnyardgrass [1] = experiment: Test C flooded paddy test; format: in vivo, Echinochloa crus-galli; conditions: for Plant response rating, Barnyardgrass: 500 g ai/ha, visual rating after 12 to 14 days
How it was run: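 Visual rating, 0 (no effect) to 100 (complete control), vs. controls at 12–14 d in greenhouse. Postemergence: 1–4-leaf plants, 2–18 cm. Paddy: flooded, barnyardgrass at 2-leaf stage.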

redroot pigweed = experiment: Test A pre-/postemergence herbicide test; format: in vivo, Amaranthus retroflexus
How it was run: (§2)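 Both application timings were run together: directed soil spray over freshly planted seeds in sandy loam, and runoff spray onto 2–10 cm seedlings. Evaluation after ~10 days in greenhouse used a 0–100 visual scale versus untreated controls.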

corn = experiment: Test C pre-/postemergence herbicide test; format: in vivo, Zea mays; conditions: for Corn plant response rating: 500 g ai/ha
How it was run: as §1

velvetleaf [2] = experiment: Test C pre-/postemergence herbicide test; format: in vivo, Abutilon theophrasti; conditions: for Velvetleaf plant response rating: 500 g ai/ha
How it was run: as §1

barnyardgrass [3] = experiment: Test A pre-/postemergence herbicide test; format: in vivo, Echinochloa crus-galli
How it was run: as §2

yellow nutsedge = experiment: Test C pre-/postemergence herbicide test; format: in vivo, Cyperus esculentus; conditions: for Nutsedge, Yellow plant response rating: 500 g ai/ha
How it was run: as §1

cocklebur = experiment: Test C pre-/postemergence herbicide test; format: in vivo, Xanthium strumarium; conditions: for Cocklebur plant response rating: 500 g ai/ha
How it was run: as §1

velvetleaf [4] = experiment: Test A pre-/postemergence herbicide test; format: in vivo, Abutilon theophrasti
How it was run: as §2

common ragweed = experiment: Test C pre-/postemergence herbicide test; format: in vivo, Ambrosia elatior; set-up: key to Plant response rating, Ragweed: 0 = no effect, 100 = complete control; conditions: for Ragweed plant response rating: 500 g ai/ha
How it was run: as §1

rice = experiment: Test C flooded paddy test; format: in vivo, Oryza sativa; conditions: for Plant response rating, Rice: 500 g ai/ha, visual rating after 12 to 14 days
How it was run: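 Plants were grown to the 1- to 4-leaf stage (2–18 cm) and then treated postemergence, or grown to the 2-leaf stage for the flooded paddy test. They were held in a greenhouse for 12 to 14 days and then scored by eye against controls, where 0 is no effect and 100 is complete control.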

eastern black nightshade = experiment: Test C pre-/postemergence herbicide test; format: in vivo, Solanum ptycanthum; conditions: for Plant response rating (0 = no effect, 100 = complete control), Nightshade: 62 g ai/ha; for Plant response rating (0 = no effect, 100 = complete control), Nightshade / Plant response rating, Nightshade: preemergence; for Plant response rating, Nightshade: 125 g ai/ha, scale 0 (no effect) to 100 (complete control), visual, 12 to 14 days; for Nightshade plant response rating: Preemergence, 500 g ai/ha, scale 0 to 100, 0 no effect, 100 complete control
How it was run: as §1

[5] = 125 g ai/ha, scale 0 (no effect) to 100 (complete control), visual, 12 to 14 days, preemergence
[6] = 250 g ai/ha, scale 0 to 100 (0 no effect, 100 complete control), visual, 12 to 14 days, preemergence
[7] = Preemergence, scale 0 to 100, 0 no effect, 100 complete control
[8] = 62 g ai/ha, scale 0 to 100 (0 no effect, 100 complete control)
[9] = 125 g ai/ha, scale of 0 to 100, 0 is no effect, 100 is complete control
[10] = 250 g ai/ha, scale of 0 to 100, 0 is no effect, 100 is complete control
[11] = scale 0 to 100 (0 no effect, 100 complete control)
[12] = Postemergence, 500 g ai/ha, 0 to 100 scale, 0 no effect, 100 complete control
[13] = Postemergence, 2000 g ai/ha, 0 to 100 scale, 0 no effect, 100 complete control
[14] = Preemergence, 500 g ai/ha, visual rating, 0 to 100 scale (0 no effect, 100 complete control)
[15] = Preemergence, 2000 g ai/ha, visual rating, 0 to 100 scale (0 no effect, 100 complete control)
[16] = Postemergence, 250 g ai/ha, scale 0 to 100, 0 no effect, 100 complete control
[17] = postemergence, 125 g ai/ha, scale 0 to 100
[18] = postemergence, 62 g ai/ha, scale 0 to 100
[19] = 125 g ai/ha, scale 0 to 100 (0 no effect, 100 complete control)
[20] = preemergence, 500 g ai/ha, visual injury, 0 to 100 scale (0 no effect, 100 complete control)

With `CC(=NO)c1cccc(NC(=O)c2cc(C(C)(C)C)nn2C)c1` [Compound 102] the “Plant response rating (0 = no effect, 100 = complete control), Crabgrass, Large” value (large crabgrass; 62 g ai/ha, preemergence) was 100, the “Plant response rating, Crabgrass, Large” value (large crabgrass; [5]) was 100 and the “Plant response rating, Crabgrass, Large” value (large crabgrass; [6]) was 100. The “Crabgrass, Large plant response rating” value (large crabgrass; [7]) was 100, the “Ducksalad plant response rating” value (ducksalad; [8]) was 20 and the “Ducksalad plant response rating” value (ducksalad; [9]) was 80. The “Ducksalad plant response rating” value (ducksalad; [10]) was 90, the “Plant response rating, Ducksalad” value (ducksalad; [11]) was 90 and the “Barnyardgrass plant response rating” value (barnyardgrass [1]; [8]) was 10. For the same compound, the “Barnyardgrass plant response rating” value (barnyardgrass [1]; [9]) was 50, the “Barnyardgrass plant response rating” value (barnyardgrass [1]; [10]) was 50 and the “Plant response rating, Barnyardgrass” value (barnyardgrass [1]; [11]) was 70. For the same compound, the “Pigweed plant response rating” value (redroot pigweed; [12]) was 95, the “Plant response rating, Pigweed” value (redroot pigweed; [13]) was 100 and the “Pigweed plant response rating” value (redroot pigweed; [14]) was 80. For the same compound, the “Pigweed plant response rating” value (redroot pigweed; [15]) was 90, the “Plant response rating (0 = no effect, 100 = complete control), Corn” value (corn; 62 g ai/ha, preemergence) was 0 and the “Plant response rating, Corn” value (corn; [5]) was 0. The “Plant response rating, Corn” value (corn; [6]) was 10, the “Corn plant response rating” value (corn; [7]) was 30 and the “Plant response rating, Velvetleaf” value (velvetleaf [2]; [5]) was 20. The “Velvetleaf plant response rating” value (velvetleaf [2]; [7]) was 60, the “Barnyardgrass plant response rating” value (barnyardgrass [3]; [12]) was 55 and the “Plant response rating, Barnyardgrass” value (barnyardgrass [3]; [13]) was 75. The “Barnyardgrass plant response rating” value (barnyardgrass [3]; [14]) was 70, the “Barnyardgrass plant response rating” value (barnyardgrass [3]; [15]) was 85 and the “Plant response rating (0 = no effect, 100 = complete control), Nutsedge, Yellow” value (yellow nutsedge; 62 g ai/ha, preemergence) was 0. For the same compound, the “Plant response rating, Nutsedge, Yellow” value (yellow nutsedge; [5]) was 0, the “Nutsedge, Yellow plant response rating” value (yellow nutsedge; [7]) was 30 and the “Plant response rating (0 = no effect, 100 = complete control), Cocklebur” value (cocklebur; 62 g ai/ha, preemergence) was 10. For the same compound, the “Plant response rating, Cocklebur” value (cocklebur; [5]) was 20, the “Plant response rating, Cocklebur” value (cocklebur; [6]) was 20 and the “Cocklebur plant response rating” value (cocklebur; [7]) was 70. For the same compound, the “Velvetleaf plant response rating” value (velvetleaf [4]; [12]) was 10, the “Plant response rating, Velvetleaf” value (velvetleaf [4]; [13]) was 20 and the “Velvetleaf plant response rating” value (velvetleaf [4]; [14]) was 30. The “Velvetleaf plant response rating” value (velvetleaf [4]; [15]) was 60, the “Plant response rating (0 = no effect, 100 = complete control), Ragweed” value (common ragweed; 62 g ai/ha, preemergence) was 10 and the “Plant response rating, Ragweed” value (common ragweed; [5]) was 20. The “Ragweed plant response rating” value (common ragweed; [7]) was 100, the “Rice plant response rating” value (rice; [8]) was 20 and the “Rice plant response rating” value (rice; [9]) was 30. For the same compound, the “Rice plant response rating” value (rice; [10]) was 40, the “Plant response rating, Rice” value (rice; [11]) was 60 and the “Plant response rating (0 = no effect, 100 = complete control), Nightshade” value (eastern black nightshade) was 90. The “Plant response rating, Nightshade” value (eastern black nightshade) was 100 and the “Nightshade plant response rating” value (eastern black nightshade) was 100.
For `CCn1nc(C(C)(C)C)cc1C(=O)Nc1cccc(C(=O)NC2CC2)n1` [Compound 146], the “Plant response rating (0 = no effect, 100 = complete control), Crabgrass, Large” value (large crabgrass; 62 g ai/ha, preemergence) was 20, the “Crabgrass, Large plant response rating” value (large crabgrass; Postemergence, scale 0 to 100) was 85 and the “Plant response rating, Crabgrass, Large” value (large crabgrass; [16]) was 50. For the same compound, the “Crabgrass, Large plant response rating” value (large crabgrass; [7]) was 70, the “Plant response rating, Crabgrass, Large” value (large crabgrass; [17]) was 0 and the “Plant response rating, Crabgrass, Large” value (large crabgrass; [18]) was 0. For the same compound, the “Ducksalad plant response rating” value (ducksalad; [8]) was 0, the “Ducksalad plant response rating” value (ducksalad; [19]) was 0 and the “Ducksalad plant response rating” value (ducksalad; [10]) was 20. For the same compound, the “Plant response rating, Ducksalad” value (ducksalad; [11]) was 20, the “Barnyardgrass plant response rating” value (barnyardgrass [1]; [8]) was 0 and the “Barnyardgrass plant response rating” value (barnyardgrass [1]; [9]) was 0. The “Barnyardgrass plant response rating” value (barnyardgrass [1]; [10]) was 0, the “Plant response rating, Barnyardgrass” value (barnyardgrass [1]; [11]) was 20 and the “Pigweed plant response rating” value (redroot pigweed; [12]) was 85. The “Plant response rating, Pigweed” value (redroot pigweed; [13]) was 100, the “Pigweed plant response rating” value (redroot pigweed; [15]) was 95 and the “Pigweed plant response rating” value (redroot pigweed; [20]) was 85. The “Plant response rating (0 = no effect, 100 = complete control), Corn” value (corn; 62 g ai/ha, preemergence) was 0, the “Plant response rating, Corn” value (corn; [5]) was 0 and the “Plant response rating, Corn” value (corn; [6]) was 10. For the same compound, the “Corn plant response rating” value (corn; Postemergence, scale 0 to 100) was 30, the “Plant response rating, Corn” value (corn; [16]) was 10 and the “Corn plant response rating” value (corn; [7]) was 30. The “Plant response rating, Corn” value (corn; [17]) was 5, the “Plant response rating, Corn” value (corn; [18]) was 5 and the “Plant response rating, Velvetleaf” value (velvetleaf [2]; [5]) was 40. The “Velvetleaf plant response rating” value (velvetleaf [2]; Postemergence, scale 0 to 100) was 40, the “Plant response rating, Velvetleaf” value (velvetleaf [2]; [16]) was 40 and the “Velvetleaf plant response rating” value (velvetleaf [2]; [7]) was 100. For the same compound, the “Plant response rating, Velvetleaf” value (velvetleaf [2]; [17]) was 35, the “Plant response rating, Velvetleaf” value (velvetleaf [2]; [18]) was 30 and the “Barnyardgrass plant response rating” value (barnyardgrass [3]; [12]) was 50. For the same compound, the “Plant response rating, Barnyardgrass” value (barnyardgrass [3]; [13]) was 75, the “Barnyardgrass plant response rating” value (barnyardgrass [3]; [14]) was 70 and the “Barnyardgrass plant response rating” value (barnyardgrass [3]; [15]) was 80. The “Plant response rating (0 = no effect, 100 = complete control), Nutsedge, Yellow” value (yellow nutsedge; 62 g ai/ha, preemergence) was 0, the “Plant response rating, Nutsedge, Yellow” value (yellow nutsedge; [5]) was 0 and the “Nutsedge, Yellow plant response rating” value (yellow nutsedge; Postemergence, scale 0 to 100) was 0. The “Plant response rating, Nutsedge, Yellow” value (yellow nutsedge; [16]) was 0, the “Nutsedge, Yellow plant response rating” value (yellow nutsedge; [7]) was 0 and the “Plant response rating, Nutsedge, Yellow” value (yellow nutsedge; [17]) was 0. For the same compound, the “Plant response rating, Nutsedge, Yellow” value (yellow nutsedge; [18]) was 0, the “Plant response rating (0 = no effect, 100 = complete control), Cocklebur” value (cocklebur; 62 g ai/ha, preemergence) was 0 and the “Plant response rating, Cocklebur” value (cocklebur; [5]) was 0. The “Plant response rating, Cocklebur” value (cocklebur; [6]) was 0, the “Cocklebur plant response rating” value (cocklebur; Postemergence, scale 0 to 100) was 20 and the “Plant response rating, Cocklebur” value (cocklebur; [16]) was 10. For the same compound, the “Cocklebur plant response rating” value (cocklebur; [7]) was 0, the “Plant response rating, Cocklebur” value (cocklebur; [17]) was 5 and the “Plant response rating, Cocklebur” value (cocklebur; [18]) was 5. For the same compound, the “Velvetleaf plant response rating” value (velvetleaf [4]; [12]) was 20, the “Plant response rating, Velvetleaf” value (velvetleaf [4]; [13]) was 35 and the “Velvetleaf plant response rating” value (velvetleaf [4]; [15]) was 25. For the same compound, the “Velvetleaf plant response rating” value (velvetleaf [4]; [20]) was 20, the “Plant response rating (0 = no effect, 100 = complete control), Ragweed” value (common ragweed; 62 g ai/ha, preemergence) was 0 and the “Plant response rating, Ragweed” value (common ragweed; [5]) was 0. For the same compound, the “Ragweed plant response rating” value (common ragweed; Postemergence, scale 0 to 100) was 0, the “Plant response rating, Ragweed” value (common ragweed; [16]) was 0 and the “Ragweed plant response rating” value (common ragweed; [7]) was 70. For the same compound, the “Plant response rating, Ragweed” value (common ragweed; [17]) was 0, the “Plant response rating, Ragweed” value (common ragweed; [18]) was 0 and the “Rice plant response rating” value (rice; [8]) was 0. The “Rice plant response rating” value (rice; [19]) was 0, the “Rice plant response rating” value (rice; [10]) was 0 and the “Plant response rating, Rice” value (rice; [11]) was 20. The “Plant response rating (0 = no effect, 100 = complete control), Nightshade” value (eastern black nightshade) was 50, the “Plant response rating, Nightshade” value (eastern black nightshade) was 60 and the “Nightshade plant response rating” value (eastern black nightshade) was 100.
